Some results are limits rather than exact numbers.

The test system of one experiment is HCT116 cells. The experiment can be described thus: In vitro cytotoxicity measured by the cell colony formation assay. It counts as cell-based. The conditions noted are these: HCT116 cells, 72 h incubation with drug, colonies counted after 7 days; ID50 = drug concentration producing 50% inhibition of colony formation; read-out: IN VITRO ID 50 (nm) HCT116. Summed up:
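Colony-forming survival was scored 7 days after a 72 h, 37 °C compound exposure followed by washout into fresh medium.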
On to `CCCC(=O)N[C@@H](c1cccs1)[C@@H](O)C(=O)O[C@H]1C[C@@]2(O)[C@@H](OC(=O)c3ccccc3)C3[C@](C)(C(=O)[C@H](OC(=O)OCC)C(=C1C)C2(C)C)[C@@H](O)C[C@H]1OC[C@@]31OC(C)=O` (stereo partly drawn) [Compound 3155], for which the IC50 is < 1 nM.
For the molecule `CCOC(=O)O[C@H]1C(=O)[C@@]2(C)C([C@H](OC(=O)c3ccccc3)[C@]3(O)C[C@H](OC(=O)[C@H](O)[C@@H](NC(=O)OCC(C)C)c4ccco4)C(C)=C1C3(C)C)[C@]1(OC(C)=O)CO[C@@H]1C[C@@H]2O` (stereo partly drawn) [Compound 3181], the IC50 was < 1 nM.
Consider `C/C=C/C(=O)N[C@@H](c1cccs1)[C@@H](O)C(=O)O[C@H]1C[C@@]2(O)[C@@H](OC(=O)c3ccccc3)C3[C@](C)(C(=O)[C@H](OC(=O)OCC)C(=C1C)C2(C)C)[C@@H](O)C[C@H]1OC[C@@]31OC(C)=O` (stereo partly drawn) [Compound 3243], for which the IC50 was < 1 nM.
On the same count and under the same terms, the same measure for `CCOC(=O)O[C@H]1C(=O)[C@@]2(C)C([C@H](OC(=O)c3ccccc3)[C@]3(O)C[C@H](OC(=O)[C@H](O)[C@@H](NC(=O)c4cccnc4)c4cccs4)C(C)=C1C3(C)C)[C@]1(OC(C)=O)CO[C@@H]1C[C@@H]2O` (stereo partly drawn) [Compound 3300]: < 10 nM; for `CCOC(=O)O[C@H]1C(=O)[C@@]2(C)C([C@H](OC(=O)c3ccccc3)[C@]3(O)C[C@H](OC(=O)[C@H](O)[C@@H](NC(=O)c4ccncc4)c4cccs4)C(C)=C1C3(C)C)[C@]1(OC(C)=O)CO[C@@H]1C[C@@H]2O` (stereo partly drawn) [Compound 3393]: > 50 nM.
On the same count and under the same terms, next, `CCOC(=O)O[C@H]1C(=O)[C@@]2(C)C([C@H](OC(=O)c3ccccc3)[C@]3(O)C[C@H](OC(=O)[C@H](O)[C@@H](NC(=O)c4ccccn4)c4cccs4)C(C)=C1C3(C)C)[C@]1(OC(C)=O)CO[C@@H]1C[C@@H]2O` (stereo partly drawn) [Compound 3433]: 22.3 nM.

Staying with this experiment, now noted: HCT116 colony formation; 72 h drug incubation, colonies counted after 7 days; Example 5, C-7 ester/C-10 hydroxy taxanes; read-out: IN VITRO ID 50 (nm) HCT116.
`CCCC(=O)N[C@@H](c1ccco1)[C@@H](O)C(=O)O[C@H]1C[C@@]2(O)[C@@H](OC(=O)c3ccccc3)C3[C@](C)(C(=O)[C@H](O)C(=C1C)C2(C)C)[C@@H](OC(=O)CC)C[C@H]1OC[C@@]31OC(C)=O` (stereo partly drawn) [Compound 3171]: the IC50 is < 1 nM.
`CCC(=O)O[C@H]1C[C@H]2OC[C@@]2(OC(C)=O)C2[C@H](OC(=O)c3ccccc3)[C@]3(O)C[C@H](OC(=O)[C@H](O)[C@@H](NC(=O)OCC(C)C)c4ccco4)C(C)=C([C@@H](O)C(=O)[C@@]21C)C3(C)C` (stereo partly drawn) [Compound 3196]: the IC50 was < 10 nM.
Same read-out and setting: next, `CCC(=O)O[C@H]1C[C@H]2OC[C@@]2(OC(C)=O)C2[C@H](OC(=O)c3ccccc3)[C@]3(O)C[C@H](OC(=O)[C@H](O)[C@@H](NC(=O)OCC(C)C)c4cccs4)C(C)=C([C@@H](O)C(=O)[C@@]21C)C3(C)C` (stereo partly drawn) [Compound 3232]: < 1 nM.
The same measure, in the same setting: next, `CCCC(=O)N[C@@H](c1cccs1)[C@@H](O)C(=O)O[C@H]1C[C@@]2(O)[C@@H](OC(=O)c3ccccc3)C3[C@](C)(C(=O)[C@H](O)C(=C1C)C2(C)C)[C@@H](OC(=O)CC)C[C@H]1OC[C@@]31OC(C)=O` (stereo partly drawn) [Compound 3327]: < 10 nM.
As to `CCC(=O)O[C@H]1C[C@H]2OC[C@@]2(OC(C)=O)C2[C@H](OC(=O)c3ccccc3)[C@]3(O)C[C@H](OC(=O)[C@H](O)[C@@H](NC(=O)c4ccccc4)c4ccsc4)C(C)=C([C@@H](O)C(=O)[C@@]21C)C3(C)C` (stereo partly drawn) [Compound 3388], the IC50 was < 10 nM.
Take `CCC(=O)O[C@H]1C[C@H]2OC[C@@]2(OC(C)=O)C2[C@H](OC(=O)c3ccccc3)[C@]3(O)C[C@H](OC(=O)[C@H](O)[C@@H](NC(=O)OC(C)C)c4ccco4)C(C)=C([C@@H](O)C(=O)[C@@]21C)C3(C)C` (stereo partly drawn) [Compound 3444]: the IC50 was < 1 nM.
Still for that read-out and setting: next, `CCC(=O)O[C@H]1C[C@H]2OC[C@@]2(OC(C)=O)C2[C@H](OC(=O)c3ccccc3)[C@]3(O)C[C@H](OC(=O)[C@H](O)[C@@H](NC(=O)c4cccs4)c4cccs4)C(C)=C([C@@H](O)C(=O)[C@@]21C)C3(C)C` (stereo partly drawn) [Compound 3479]: < 1 nM.

Still in this experiment, the particulars now being: HCT116 colony formation; 72 h drug incubation, colonies counted after 7 days; Example 10, C-10 ester/C-7 hydroxy taxanes; read-out: IN VITRO ID 50 (nm) HCT116.
For `CCCC(=O)N[C@@H](c1cccs1)[C@@H](O)C(=O)O[C@H]1C[C@@]2(O)[C@@H](OC(=O)c3ccccc3)C3[C@](C)(C(=O)[C@H](OC(=O)CCC)C(=C1C)C2(C)C)[C@@H](O)C[C@H]1OC[C@@]31OC(C)=O` (stereo partly drawn) [Compound 3148], the IC50 is < 1 nM.
For `CCC(=O)O[C@H]1C(=O)[C@@]2(C)C([C@H](OC(=O)c3ccccc3)[C@]3(O)C[C@H](OC(=O)[C@H](O)[C@@H](NC(=O)OCC(C)C)c4cccs4)C(C)=C1C3(C)C)[C@]1(OC(C)=O)CO[C@@H]1C[C@@H]2O` (stereo partly drawn) [Compound 3163], the IC50 is < 1 nM.
As for `CCCC(=O)O[C@H]1C(=O)[C@@]2(C)C([C@H](OC(=O)c3ccccc3)[C@]3(O)C[C@H](OC(=O)[C@H](O)[C@@H](NC(=O)c4ccccc4)c4ccco4)C(C)=C1C3(C)C)[C@]1(OC(C)=O)CO[C@@H]1C[C@@H]2O` (stereo partly drawn) [Compound 3204], the IC50 is < 1 nM.
Take `CCCC(=O)N[C@@H](c1ccco1)[C@@H](O)C(=O)O[C@H]1C[C@@]2(O)[C@@H](OC(=O)c3ccccc3)C3[C@](C)(C(=O)[C@H](OC(=O)CC)C(=C1C)C2(C)C)[C@@H](O)C[C@H]1OC[C@@]31OC(C)=O` (stereo partly drawn) [Compound 3219]: the IC50 was < 1 nM.
The same measure, in the same setting: the same measure for `CCCC(=O)N[C@@H](c1ccco1)[C@@H](O)C(=O)O[C@H]1C[C@@]2(O)[C@@H](OC(=O)c3ccccc3)C3[C@](C)(C(=O)[C@H](OC(=O)CCC)C(=C1C)C2(C)C)[C@@H](O)C[C@H]1OC[C@@]31OC(C)=O` (stereo partly drawn) [Compound 3222]: < 1 nM; for `CCCC(=O)O[C@H]1C(=O)[C@@]2(C)C([C@H](OC(=O)c3ccccc3)[C@]3(O)C[C@H](OC(=O)[C@H](O)[C@@H](NC(=O)c4ccccc4)c4cccs4)C(C)=C1C3(C)C)[C@]1(OC(C)=O)CO[C@@H]1C[C@@H]2O` (stereo partly drawn) [Compound 3258]: < 1 nM.
For `CCCC(=O)O[C@H]1C(=O)[C@@]2(C)C([C@H](OC(=O)c3ccccc3)[C@]3(O)C[C@H](OC(=O)[C@H](O)[C@@H](NC(=O)OCC(C)C)c4cccs4)C(C)=C1C3(C)C)[C@]1(OC(C)=O)CO[C@@H]1C[C@@H]2O` (stereo partly drawn) [Compound 3265], the IC50 was < 10 nM.
`CC(=O)O[C@@]12CO[C@@H]1C[C@H](O)[C@@]1(C)C(=O)[C@H](OC(=O)C3CC3)C3=C(C)[C@@H](OC(=O)[C@H](O)[C@@H](NC(=O)c4ccco4)c4cccs4)C[C@@](O)([C@@H](OC(=O)c4ccccc4)C12)C3(C)C` (stereo partly drawn) [Compound 3297]: the IC50 was < 1 nM.
Still for that read-out and setting: next, `CCCC(=O)N[C@@H](c1cccs1)[C@@H](O)C(=O)O[C@H]1C[C@@]2(O)[C@@H](OC(=O)c3ccccc3)C3[C@](C)(C(=O)[C@H](OC(=O)CCC)C(=C1C)C2(C)C)[C@@H](O)C[C@H]1OC[C@@]31OC(C)=O` (stereo partly drawn) [Compound 3314]: < 1 nM; `CCCC(=O)O[C@H]1C(=O)[C@@]2(C)C([C@H](OC(=O)c3ccccc3)[C@]3(O)C[C@H](OC(=O)[C@H](O)[C@@H](NC(=O)c4ccco4)c4cccs4)C(C)=C1C3(C)C)[C@]1(OC(C)=O)CO[C@@H]1C[C@@H]2O` (stereo partly drawn) [Compound 3352]: < 1 nM; `CCC(=O)O[C@H]1C(=O)[C@@]2(C)C([C@H](OC(=O)c3ccccc3)[C@]3(O)C[C@H](OC(=O)[C@H](O)[C@@H](NC(=O)OC(C)C)c4cccs4)C(C)=C1C3(C)C)[C@]1(OC(C)=O)CO[C@@H]1C[C@@H]2O` (stereo partly drawn) [Compound 3361]: < 1 nM.
Turning to `CCOC(=O)N[C@@H](c1cccs1)[C@@H](O)C(=O)O[C@H]1C[C@@]2(O)[C@@H](OC(=O)c3ccccc3)C3[C@](C)(C(=O)[C@H](OC(=O)CC)C(=C1C)C2(C)C)[C@@H](O)C[C@H]1OC[C@@]31OC(C)=O` (stereo partly drawn) [Compound 3370], the IC50 is < 1 nM.
On the same count and under the same terms, the same measure for `CCCC(=O)O[C@H]1C(=O)[C@@]2(C)C([C@H](OC(=O)c3ccccc3)[C@]3(O)C[C@H](OC(=O)[C@H](O)[C@@H](NC(=O)c4cccs4)c4cccs4)C(C)=C1C3(C)C)[C@]1(OC(C)=O)CO[C@@H]1C[C@@H]2O` (stereo partly drawn) [Compound 3408]: < 1 nM; for `CCCC(=O)O[C@H]1C(=O)[C@@]2(C)C([C@H](OC(=O)c3ccccc3)[C@]3(O)C[C@H](OC(=O)[C@H](O)[C@@H](NC(=O)OC(C)C)c4ccco4)C(C)=C1C3(C)C)[C@]1(OC(C)=O)CO[C@@H]1C[C@@H]2O` (stereo partly drawn) [Compound 3417]: < 1 nM.
Take `CCC(=O)O[C@H]1C(=O)[C@@]2(C)C([C@H](OC(=O)c3ccccc3)[C@]3(O)C[C@H](OC(=O)[C@H](O)[C@@H](NC(=O)c4cccs4)c4cccs4)C(C)=C1C3(C)C)[C@]1(OC(C)=O)CO[C@@H]1C[C@@H]2O` (stereo partly drawn) [Compound 3425]: the IC50 was < 1 nM.
On to `CC(=O)O[C@@]12CO[C@@H]1C[C@H](O)[C@@]1(C)C(=O)[C@H](OC(=O)C3CC3)C3=C(C)[C@@H](OC(=O)[C@H](O)[C@@H](NC(=O)c4cccs4)c4cccs4)C[C@@](O)([C@@H](OC(=O)c4ccccc4)C12)C3(C)C` (stereo partly drawn) [Compound 3453], for which the IC50 was < 1 nM.
Same read-out and setting: the same measure for `CCCC(=O)O[C@H]1C(=O)[C@@]2(C)C([C@H](OC(=O)c3ccccc3)[C@]3(O)C[C@H](OC(=O)[C@H](O)[C@@H](NC(=O)c4ccccc4)C4CC4)C(C)=C1C3(C)C)[C@]1(OC(C)=O)CO[C@@H]1C[C@@H]2O` (stereo partly drawn) [Compound 3482]: < 1 nM; for `C/C=C/C(=O)N[C@@H](c1cccs1)[C@@H](O)C(=O)O[C@H]1C[C@@]2(O)[C@@H](OC(=O)c3ccccc3)C3[C@](C)(C(=O)[C@H](OC(=O)CC)C(=C1C)C2(C)C)[C@@H](O)C[C@H]1OC[C@@]31OC(C)=O` (stereo partly drawn) [Compound 3494]: < 1 nM; for `C/C=C/C(=O)N[C@@H](c1cccs1)[C@@H](O)C(=O)O[C@H]1C[C@@]2(O)[C@@H](OC(=O)c3ccccc3)C3[C@](C)(C(=O)[C@H](OC(=O)C4CC4)C(=C1C)C2(C)C)[C@@H](O)C[C@H]1OC[C@@]31OC(C)=O` (stereo partly drawn) [Compound 3513]: < 1 nM.
`CCC(=O)O[C@H]1C(=O)[C@@]2(C)C([C@H](OC(=O)c3ccccc3)[C@]3(O)C[C@H](OC(=O)[C@H](O)[C@@H](NC(=O)OC(C)C)c4ccco4)C(C)=C1C3(C)C)[C@]1(OC(C)=O)CO[C@@H]1C[C@@H]2O` (stereo partly drawn) [Compound 3522]: the IC50 was < 1 nM.

Source of the values: patent publication US6638973B2, “Taxane formulations” (FSU Research Foundation, Inc., priority 2000, dated 2003).
